# Measurements reported in patent publication US20110123483A1, “HMGB1 FOR CANCER TREATMENT” (DEUTSCHES KREBSFORSCHUNGSZENTRUM, priority 2009, published 2011).
# “Also recorded” adds a separate entry of the source.
# Experiments:
# Assay type in all cases: cell-based, human
# pseudo rho zero cells = assay: Survival of pseudo rho zero cells by crystal violet analysis; settings: cells devoid of intact mitochondrial DNA
# Procedure: U251 glioblastoma cells and non-immortalized human astrocytic cells (ScienCell, USA) were maintained in DMEM (Life Technologies) containing 10% FCS, 4.5 g/L glucose, glutamine, 110 mg/L sodium pyruvate, and 1% penicillin-streptomycin (Life Technologies) and in astrocyte medium (ScienCell) containing 2% FBS (fetal bovine serum) and 1% penicillin-streptomycin at 37° C. and 5% CO2. For the generation of pseudo rho zero cells (0.0), U251 MG cells were treated with low dose (250 ng/ml) ethidiumbromide for 3 months. The cells were supplemented with DMEM (10% FCS, 1% P/S) containing 50 μg/ml L-pyruvate and 5 mg/ml uridine (King and Attardi, 1989).
# 20,000 U251MG glioblastoma cells or human astrocytic cells (ScienCell) were plated into 96-well plates. After 24 h cells were treated with rhHMGB1 (Sigma Aldrich) or rat recombinant HMGB1 (generously provided by Angelika Bierhaus, Heidelberg, Germany), and TRAIL (for 24 h) or Temozolomide (for 72 h) alone or in combination, respectively. Cell survival was measured by crystal violet staining as described previously (Gdynia et al., 2007). Cell proliferation was assessed by seeding 50,000 U251 MG cells in 6 cm culture plates and treatment with rhHMGB1, followed by counting the cells in a Neubauer chamber at day 0, 2, 4 and 5.
# U251MG glioma cells = assay: Subcellular fractionation after iodine-125 labelled rhHMGB1; immunofluorescence colocalization; settings: 40 nM for 24 h (FIG. 8B)
# Procedure: U251 cells were seeded on 10 cm culture dishes. […], 4 h, 16 h and 24 h, the cells were detached carefully by incubation with cell dissociation buffer (30 min) in order to protect possible surface proteinreceptor-complexes, harvested, and subjected to subcellular fractionation using the ApoAlert Fractionation Kit as described below (the plasma membrane fraction was extracted from the cytoplasmatic fraction by a last centrifugation step of 400.000×g for 15 min at 4° C.). Successful fractionation was confirmed by western blot. Successful coupling of the HMGB1-tyrosine residues with I-125 was shown by the high radioactivity in the protein fraction of sephadex G25 gel filtration (early eluates). Fraction 4 was used for the incubation of cells with I-125-HMGB1. For radioactivity measurements cells were solubilized in 0.5M NaOH and mixed with 10 ml LSC cocktail (Ultima Gold, Perkin Elmer, Waltham Mass.). The radioactivity of each subcellular fraction was measured in a liquid scintillation counter (Packard TriCarb 2900, Meriden, Ill.) by using the Compton effect.
# Enrichment of mitochondrial fractions was performed using the ApoAlert Cell Fractionation Kit (Clontech, Mountain View, Calif.) as described previously (Gdynia et al., 2008). […]
# U251 MG cells = assay: Western blot of phospho-H2A.X and BNIP3; settings: 24 h (FIG. 7)
# Procedure: The U251 MG tumor cells were lysed in lysis buffer containing 20 mmol/L Tris-HCl (pH 7.4), 137 mmol/L NaCl, 10% (v/v) glycerine, 1% Triton X-100, 2 mmol/L EDTA, 100 mmol/L phenylmethylsulfonyl fluoride, and protease inhibitors (Complete mini; Roche Molecular Biochemicals). For the detection of phosphoprotein levels, 10 mmol/L NaPPi, 50 mmol/L NaF, and 20 mmol/L NaVO4 were added to the lysis buffer. After 15 min incubation on ice, the lysates were centrifuged at 14,000×g for 10 min. The total protein concentration of the lysates was measured using the Bradford assay (Bio-Rad). Soluble protein (25-100 μg per lane) was separated on 10% to 15% polyacrylamide gels and blotted onto nitrocellulose by standard procedures. […]
substance,measurement,setting,value
rhHMGB1: recombinant human High Mobility Group B1 protein (Sigma Aldrich),rhHMGB1-induced cell death in pseudo rho zero cells,pseudo rho zero cells,almost completely resistant; also recorded: highly protected
same,"mitochondrial localization, co-staining with mitochondrial marker (MitoTracker)",U251MG glioma cells,confirmed
same,BNIP3 expression,U251 MG cells,not up-regulated
same,H2A.X phosphorylation,U251 MG cells,not observed
